Measured values published in the supplement of paper PMC10307832.

Assays:
Test in all cases: relative viability (nuclei count vs DMSO), 5 days (fraction); higher = more cells survive
[1] = compound: O=S(=O)(c1ccccc1)N(CC(F)(F)F)c1ccc(C(O)(C(F)(F)F)C(F)(F)F)cc1 + Nc1nc2[nH]cc(CCc3ccc(C(=O)N[C@@H](CCC(=O)O)C(=O)O)cc3)c2c(=O)[nH]1 [Pemetrexed] (partner 0.2 µM)
Summary of the method: (§1)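 Medians of duplicate plates are given as relative viability. That measure is the nuclei count in treated wells divided by the count in vehicle wells. Counts were taken on 4× images of lung cancer cell lines in 1536-well plates, 5 days after pin-tool dosing the day after seeding with one drug alone or a fixed anchor-drug dose plus five library-drug doses (not always all listed) in √10 steps.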

[2] = compound: O=S(=O)(c1ccccc1)N(CC(F)(F)F)c1ccc(C(O)(C(F)(F)F)C(F)(F)F)cc1 + C[C@]1(O)C[C@@H](c2nc(-c3ccc4ccc(-c5ccccc5)nc4c3)c3c(N)nccn32)C1 [Linsitinib] (partner 1 µM)
Summary of the method: as §1

RO-3306 + Tozasertib = compound: C1=CC2=C(C=CC(=C2)C=C3C(=O)NC(=NCC4=CC=CS4)S3)N=C1 [RO-3306] + Cc1cc(Nc2cc(N3CCN(C)CC3)nc(Sc3ccc(NC(=O)C4CC4)cc3)n2)n[nH]1 [Tozasertib] (partner 0.1 µM)
Summary of the method: as §1

[3] = compound: O=S(=O)(c1ccccc1)N(CC(F)(F)F)c1ccc(C(O)(C(F)(F)F)C(F)(F)F)cc1 + CCNC(=O)c1noc(-c2cc(C(C)C)c(O)cc2O)c1-c1ccc(CN2CCOCC2)cc1 [Luminespib] (partner 0.01 µM)
Summary of the method: as §1

[4] = compound: O=S(=O)(c1ccccc1)N(CC(F)(F)F)c1ccc(C(O)(C(F)(F)F)C(F)(F)F)cc1 + O=C(c1cc(Cc2n[nH]c(=O)c3ccccc23)ccc1F)N1CCN(C(=O)C2CC2)CC1 [Olaparib] (partner 8 µM)
Summary of the method: as §1

| Cell Line | relative viability ([1]; first compound 0.8 µM) | relative viability ([1]; first compound 2.53 µM) | relative viability ([1]; first compound 8 µM) | relative viability ([2]; first compound 0.8 µM) | relative viability ([2]; first compound 2.53 µM) | relative viability ([2]; first compound 8 µM) | relative viability (RO-3306 + Tozasertib; first compound 0.01 µM) | relative viability (RO-3306 + Tozasertib; first compound 0.03162 µM) | relative viability (RO-3306 + Tozasertib; first compound 0.1 µM) | relative viability (RO-3306 + Tozasertib; first compound 0.3162 µM) | relative viability (RO-3306 + Tozasertib; first compound 1 µM) | relative viability ([3]; first compound 0.8 µM) | relative viability ([3]; first compound 2.53 µM) | relative viability ([3]; first compound 8 µM) | relative viability ([4]; first compound 0.8 µM) | relative viability ([4]; first compound 2.53 µM) | relative viability ([4]; first compound 8 µM) |
| --- | --- | --- | --- | --- | --- | --- | --- | --- | --- | --- | --- | --- | --- | --- | --- | --- | --- |
| NCI-H2405 | 1.17 | 1.05 | 1.01 | 1.05 | 0.913 | 0.983 | 0.746 | 0.723 | 0.704 | 0.675 | 0.628 | 0.718 | 0.616 | 0.646 | 0.846 | 0.819 | 0.777 |
| NCI-H1299 |  |  |  | 1.11 | 0.954 | 0.782 |  |  |  |  |  |  |  |  | 0.961 | 0.949 | 0.96 |
| SW 900 | 0.581 | 0.478 | 0.538 |  |  |  | 0.659 | 0.474 | 0.444 | 0.438 | 0.329 | 0.181 | 0.192 | 0.172 | 0.838 | 0.901 | 0.706 |
| ABC-1 |  |  |  | 0.85 | 0.581 | 0.485 | 0.145 | 0.172 | 0.222 | 0.177 | 0.14 | 0.746 | 0.571 | 0.519 |  | 0.763 | 0.638 |
| A549 |  |  |  | 0.697 | 0.585 | 0.603 |  |  |  |  |  |  |  |  | 0.299 | 0.278 | 0.204 |
| ChaGo-K-1 | 0.263 | 0.264 | 0.272 |  |  |  | 0.209 | 0.234 | 0.209 | 0.216 | 0.234 | 0.573 | 0.719 | 0.706 | 0.466 | 0.427 | 0.388 |
| NCI-H1623 |  |  |  |  |  |  | 0.45 | 0.409 | 0.442 | 0.446 | 0.391 | 0.625 | 0.411 | 0.491 |  |  |  |
| NCI-H1703 |  |  |  | 0.675 | 0.667 | 0.805 |  |  |  |  |  |  |  |  | 0.53 | 0.387 | 0.446 |
| HCC-366 | 0.16 | 0.182 | 0.174 | 0.922 | 0.601 | 0.649 | 0.123 | 0.0945 | 0.0992 | 0.0958 | 0.0525 |  |  |  | 0.414 | 0.37 | 0.281 |
| NCI-H1792 | 0.892 | 0.702 | 0.717 | 0.396 | 0.392 | 0.22 |  |  |  |  |  | 0.419 | 0.359 | 0.269 | 0.402 | 0.274 | 0.189 |
| NCI-H1563 | 0.737 | 0.749 | 0.75 | 1.2 | 1.17 | 1.06 |  |  |  |  |  | 0.545 | 0.485 | 0.551 |  |  |  |
| IA-LM |  |  |  | 0.656 | 0.34 | 0.397 |  |  |  |  |  |  |  |  | 0.94 | 0.651 | 0.681 |
| HCC-78 | 1.01 | 0.915 | 0.967 | 0.45 | 0.426 | 0.444 | 0.436 | 0.4 | 0.515 | 0.431 | 0.448 |  |  |  | 0.908 | 0.816 | 0.765 |
| NCI-H2342 | 0.894 | 0.841 | 0.956 |  |  |  | 0.54 | 0.537 | 0.492 | 0.47 | 0.506 | 0.809 | 0.782 | 0.628 | 0.475 | 0.504 | 0.429 |
